We go through 2 compounds from patent US10870876B2, “Method for detecting a presence or absence of at least one first zone of inhibition” (BIOMÉRIEUX, priority 2015, dated 2020).

For assay [1], the system named is Staphylococcus aureus ATCC 25923. In words: Disk-diffusion test with ampicillin disk, inoculation by flooding or by droplets along an axis. Type of assay: cell-based. The settings on record: disk containing 10 pig of ampicillin, 0.5 McFarland, 37° C. for 6 hours 30 minutes; similar for flooding and droplets; EUCAST threshold R 18 mm. From the text:
A conventional test of sensitivity is the disk-diffusion test, often referred to as the Kirby-Bauer method. This standardized method involves the inoculation of an agar culture medium (for example a 90 mm or 150 mm Mueller-Hinton agar) with a sample, generally standardized to 0.5 McFarland, obtained from a microbial isolate. The inoculation may be performed by conventional manual methods, by means of a swab or a loop. Alternatively, the inoculation may be performed by flooding the agar with a suspension standardized to one tenth of 0.5 McFarland, followed by removal of the excess sample. Following the inoculation, one or more paper disks impregnated with defined concentrations of antibiotics are deposited on the surface of the agar. After an incubation period, generally from 16 to 20 hours at 35° C., the diameter of the zone(s) of inhibition around the disks makes it possible to determine the sensitivity of the microorganism present in the inoculated sample to each of the antimicrobial agents impregnated in each disk. Due to the standardization of the Kirby-Bauer method, the results of this method are analyzed by comparing the diameter of each of the zones of inhibition with the recommendations published by regulatory bodies such as NCCLS (National Committee for Clinical Laboratory Standards) or EUCAST (European Committee on Antimicrobial Susceptibility Testing). […]

Assay [2] has as its system Escherichia coli ATCC 25922. In words: Etest strip MIC, sample deposited by smearing with a filtration sampling tool along two axes. Type of assay: cell-based. The settings on record: smear deposition, incubated at 35° C., shadowgraphy images from 3 h 30; visual examination at 6 h 30 confirms. The source says: A third method of implementation of the invention is illustrated by FIGS. 11a, 11b and 12. In this method, the sample is deposited by smearing on the surface of the culture medium (e.g. agar in a Petri dish with a diameter greater than or equal to 9 cm) by means of a sampling tool such as described in the international application published under the number WO2012/083150. Such an integrated device makes it possible to carry out one or more filtration steps and also to transfer a liquid sample. Said device comprises a tubular portion, one of the ends of which is covered with a filtration material such as a membrane, said filtration material being arranged outside this end and covering it totally. The other end of the tubular portion is able to be connected to a suction or dispensing means such as a vacuum pump. The benefit of using such a tool especially being able to estimate the MIC of a sample originating from a positive blood culture bottle, that is to say one which has a result confirming the presence of microorganisms after a given incubation time. For this purpose, the sample may especially be prepared by taking off a volume of the positive blood culture, carrying out a step of lysis, for example chemical lysis, of the blood cells of the volume taken off, then by carrying out filtration of the lysed volume by suction at the surface of a membrane. […]

In the case of `CC1(C)S[C@@H]2[C@H](NC(=O)[C@H](N)c3ccccc3)C(=O)N2[C@H]1C(=O)O` [Ampicillin, ampicillin], the “diameter D of the zone of inhibition” value in assay [1] is 22 mm.

In assay [2], gentamicin gave a minimum inhibitory concentration of 1.5 µg/mL.
